Reference: patent US11780821B2, “Inhibitors of fibroblast activation protein” (Praxis Biotech LLC, priority 2017, dated 2023)
Counter-ions that a name gives are not always drawn. Like-named read-outs stand apart in the source and are kept apart here.

Tests used:
Format in all cases: biochemical
[1] = target: T1, recombinant human DPP9 (rhDPP9) (Homo sapiens, UniProt Q86TI2); assay: DPP9 enzymatic activity assay; conditions: H-Gly-Pro-AMC substrate
T1 construct: purchased R&S system (so in the source)
T1 sequence (Q86TI2 whole entry): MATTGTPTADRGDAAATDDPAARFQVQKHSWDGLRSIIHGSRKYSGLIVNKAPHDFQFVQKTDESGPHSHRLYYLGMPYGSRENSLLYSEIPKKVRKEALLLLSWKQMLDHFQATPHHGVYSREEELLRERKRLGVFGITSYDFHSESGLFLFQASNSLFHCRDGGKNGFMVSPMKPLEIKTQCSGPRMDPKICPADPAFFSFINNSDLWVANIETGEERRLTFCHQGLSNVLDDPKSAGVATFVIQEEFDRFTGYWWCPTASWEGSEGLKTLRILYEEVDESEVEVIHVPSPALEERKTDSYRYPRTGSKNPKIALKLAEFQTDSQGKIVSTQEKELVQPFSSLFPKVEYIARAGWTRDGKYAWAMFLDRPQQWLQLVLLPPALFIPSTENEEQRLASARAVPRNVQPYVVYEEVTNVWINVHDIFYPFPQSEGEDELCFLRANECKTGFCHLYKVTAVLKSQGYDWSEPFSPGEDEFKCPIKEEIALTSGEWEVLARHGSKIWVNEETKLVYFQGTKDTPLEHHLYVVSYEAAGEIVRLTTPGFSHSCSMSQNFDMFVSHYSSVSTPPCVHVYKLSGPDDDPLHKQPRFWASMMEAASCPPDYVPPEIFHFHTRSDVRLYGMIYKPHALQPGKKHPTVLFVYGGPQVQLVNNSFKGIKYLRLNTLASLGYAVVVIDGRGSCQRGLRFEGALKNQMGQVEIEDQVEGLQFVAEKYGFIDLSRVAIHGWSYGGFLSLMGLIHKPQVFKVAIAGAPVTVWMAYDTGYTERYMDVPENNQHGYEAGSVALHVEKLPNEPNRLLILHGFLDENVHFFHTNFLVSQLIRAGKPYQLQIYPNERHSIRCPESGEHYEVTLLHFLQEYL
Experimental: (§1) 7-Amino-4-Methylcoumarin (AMC) release was detected by measuring fluorescence at Ex/Em 380/460 nm using a Multifunction Microplate Reader (Synergy 4, Biotek). All measurements were carried out in triplicate.

[2] = target: T2, recombinant human FAPα (rhFAPα) (Homo sapiens, UniProt Q12884); assay: FAPα enzymatic exopeptidase (dipeptidase) activity assay; conditions: for inhibition at 1 µM: 1 μM test compound, Z-Gly-Pro-AMC substrate, read-out: rhFAPα (% exo inh @ 1 μM); for IC50: exopeptidase, read-out: rhFAPα (exo IC50)
T2 construct: purchased R&S system (so in the source)
T2 sequence (Q12884 1-760): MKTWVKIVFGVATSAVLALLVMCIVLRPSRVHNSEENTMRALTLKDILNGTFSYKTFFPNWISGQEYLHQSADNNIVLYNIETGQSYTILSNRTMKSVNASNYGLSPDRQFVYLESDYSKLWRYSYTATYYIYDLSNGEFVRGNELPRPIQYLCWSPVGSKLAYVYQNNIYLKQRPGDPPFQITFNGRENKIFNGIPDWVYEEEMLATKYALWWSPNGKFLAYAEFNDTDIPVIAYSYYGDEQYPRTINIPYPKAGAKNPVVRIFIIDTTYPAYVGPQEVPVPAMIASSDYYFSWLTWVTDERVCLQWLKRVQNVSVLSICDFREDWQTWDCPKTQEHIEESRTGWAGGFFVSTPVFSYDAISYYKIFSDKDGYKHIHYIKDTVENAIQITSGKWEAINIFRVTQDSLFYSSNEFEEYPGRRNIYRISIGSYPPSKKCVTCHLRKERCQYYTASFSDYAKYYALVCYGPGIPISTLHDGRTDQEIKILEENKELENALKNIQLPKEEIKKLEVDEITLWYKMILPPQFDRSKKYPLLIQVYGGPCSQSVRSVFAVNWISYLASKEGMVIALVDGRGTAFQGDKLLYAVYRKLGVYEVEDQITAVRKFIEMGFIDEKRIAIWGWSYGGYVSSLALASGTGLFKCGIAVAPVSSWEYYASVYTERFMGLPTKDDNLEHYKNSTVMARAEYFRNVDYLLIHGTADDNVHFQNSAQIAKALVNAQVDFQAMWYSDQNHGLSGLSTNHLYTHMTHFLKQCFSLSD

[3] = target: T3, recombinant human DPPIV (rhDPPIV) (Homo sapiens, UniProt P27487); assay: DPPIV enzymatic activity assay; conditions: H-Gly-Pro-pNA substrate
T3 construct: purchased R&S system (so in the source)
T3 sequence (P27487 whole entry): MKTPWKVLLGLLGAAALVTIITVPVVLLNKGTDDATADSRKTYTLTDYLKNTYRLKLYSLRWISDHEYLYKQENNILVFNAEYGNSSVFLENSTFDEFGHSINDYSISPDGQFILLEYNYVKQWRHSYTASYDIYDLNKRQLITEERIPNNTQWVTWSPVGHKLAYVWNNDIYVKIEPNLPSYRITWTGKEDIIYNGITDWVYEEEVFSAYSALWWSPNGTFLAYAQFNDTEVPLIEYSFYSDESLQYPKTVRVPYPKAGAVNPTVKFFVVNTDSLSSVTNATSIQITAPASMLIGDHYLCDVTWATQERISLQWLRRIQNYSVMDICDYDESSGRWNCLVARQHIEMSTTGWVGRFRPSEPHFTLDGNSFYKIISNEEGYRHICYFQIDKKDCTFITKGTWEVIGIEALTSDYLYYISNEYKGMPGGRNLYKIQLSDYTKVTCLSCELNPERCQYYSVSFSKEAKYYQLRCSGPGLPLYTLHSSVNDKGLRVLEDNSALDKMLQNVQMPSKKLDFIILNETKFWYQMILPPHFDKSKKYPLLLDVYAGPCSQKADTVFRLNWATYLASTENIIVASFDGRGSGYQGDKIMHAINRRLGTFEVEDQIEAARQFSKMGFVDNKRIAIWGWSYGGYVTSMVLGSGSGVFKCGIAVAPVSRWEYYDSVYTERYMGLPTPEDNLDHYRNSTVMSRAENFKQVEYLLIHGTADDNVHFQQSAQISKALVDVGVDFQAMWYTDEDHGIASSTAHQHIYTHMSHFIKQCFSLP

[4] = target: T4, recombinant human PREP (rhPREP) (Homo sapiens, UniProt P48147); assay: PREP enzymatic activity assay; conditions: Z-Gly-Pro-AMC substrate
T4 sequence (P48147 1-710): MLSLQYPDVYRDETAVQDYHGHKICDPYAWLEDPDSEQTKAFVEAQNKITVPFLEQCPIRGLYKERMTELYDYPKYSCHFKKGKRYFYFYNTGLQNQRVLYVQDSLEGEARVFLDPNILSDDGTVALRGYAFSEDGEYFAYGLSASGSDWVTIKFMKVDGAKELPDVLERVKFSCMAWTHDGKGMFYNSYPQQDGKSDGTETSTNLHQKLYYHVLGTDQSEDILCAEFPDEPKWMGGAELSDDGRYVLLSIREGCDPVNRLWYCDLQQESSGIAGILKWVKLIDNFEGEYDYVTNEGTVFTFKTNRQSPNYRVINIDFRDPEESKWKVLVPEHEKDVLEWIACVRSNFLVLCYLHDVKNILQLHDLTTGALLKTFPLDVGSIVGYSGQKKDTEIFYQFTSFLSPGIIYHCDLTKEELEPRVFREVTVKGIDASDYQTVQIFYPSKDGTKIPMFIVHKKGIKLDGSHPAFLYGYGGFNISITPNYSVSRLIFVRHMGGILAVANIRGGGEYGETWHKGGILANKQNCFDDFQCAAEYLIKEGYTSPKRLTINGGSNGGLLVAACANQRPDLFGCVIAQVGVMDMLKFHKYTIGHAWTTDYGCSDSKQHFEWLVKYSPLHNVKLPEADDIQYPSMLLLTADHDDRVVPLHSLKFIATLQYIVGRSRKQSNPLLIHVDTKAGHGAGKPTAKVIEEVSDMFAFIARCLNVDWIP
Experimental: as §1

IC50 [1] | inhibition at 1 µM [2] | IC50 ([2]; Table 2, Z-Gly-Pro-AMC) | IC50 ([2]; Table 3) | IC50 [3] | IC50 [4] | Compound
> 10 µM | > 50% | < 1 µM | < 1 µM | > 10 µM | > 10 µM | Cc1ccc(-c2cnccc2C(=O)NCC(=O)N2CC(F)(F)C[C@H]2C#N)o1 [Compound 106, (S)—N-(2-(2-cyano-4,4-difluoropyrrolidin-1-yl)-2-oxoethyl)-3-(5-methylfuran-2-yl)isonicotinamide]
> 10 µM | > 50% | < 1 µM | < 1 µM | 1 to 10 µM | > 10 µM | N#C[C@@H]1CC(F)(F)CN1C(=O)CNC(=O)c1c[nH]c(=O)cc1-c1ccnc2ccccc12 [Compound 116, (S)—N-(2-(2-cyano-4,4-difluoropyrrolidin-1-yl)-2-oxoethyl)-6-oxo-4-(quinolin-4-yl)-1,6-dihydropyridine-3-carboxamide]
> 10 µM | > 50% | < 1 µM | < 1 µM | > 10 µM | > 10 µM | N#C[C@@H]1CC(F)(F)CN1C(=O)CNC(=O)c1ccncc1N1CCCCC1 [Compound 42]
> 10 µM | > 50% | < 1 µM | < 1 µM | 1 to 10 µM | > 10 µM | N#C[C@@H]1CC(F)(F)CN1C(=O)CNC(=O)c1ccncc1-c1ccnc2ccccc12 [Compound 51, (S)—N-(2-(2-cyano-4,4-difluoropyrrolidin-1-yl)-2-oxoethyl)-3-(quinolin-4-yl)isonicotinamide]
> 10 µM | > 50% | < 1 µM | < 1 µM | > 10 µM | > 10 µM | CCOc1cnccc1C(=O)NCC(=O)N1CC(F)(F)C[C@H]1C#N [Compound 113, (S)—N-(2-(2-cyano-4,4-difluoropyrrolidin-1-yl)-2-oxoethyl)-3-ethoxyisonicotinamide]
> 10 µM | > 50% | < 1 µM |  | > 10 µM | > 10 µM | N#C[C@@H]1CC(F)(F)CN1C(=O)CNC(=O)c1ccncc1Oc1ccc(F)cc1 [compound 35]
> 10 µM | > 50% | < 1 µM | < 1 µM | > 10 µM | 1 to 10 µM | N#C[C@@H]1CC(F)(F)CN1C(=O)CNC(=O)c1ccc(=O)n2c1CCCCC2 [Compound 21, (S)—N-(2-(2-cyano-4,4-difluoropyrrolidin-1-yl)-2-oxoethyl)-4-oxo-4,6,7,8,9,10-hexahydropyrido[1,2-a]azepine-1-carboxamide]
> 10 µM | > 50% | < 1 µM | < 1 µM | > 10 µM | > 10 µM | Cc1noc(C)c1-c1cnccc1C(=O)NCC(=O)N1CC(F)(F)C[C@H]1C#N [Compound 110, (S)—N-(2-(2-cyano-4,4-difluoropyrrolidin-1-yl)-2-oxoethyl)-3-(3,5-dimethylisoxazol-4-yl)isonicotinamide]
> 10 µM | > 50% | < 1 µM | < 1 µM | > 10 µM | > 10 µM | N#C[C@@H]1CC(F)(F)CN1C(=O)CNC(=O)c1ccncc1NC1CCNCC1 [Compound 118, (S)—N-(2-(2-cyano-4,4-difluoropyrrolidin-1-yl)-2-oxoethyl)-3-(piperidin-4-ylamino)isonicotinamide]
> 10 µM | > 50% | < 1 µM | < 1 µM | > 10 µM | > 10 µM | N#C[C@@H]1CC(F)(F)CN1C(=O)CNC(=O)c1ccncc1Nc1ccccc1 [Compound 102]
> 10 µM | > 50% | < 1 µM | < 1 µM | > 10 µM | 1 to 10 µM | N#C[C@@H]1CC(F)(F)CN1C(=O)CNC(=O)c1ccncc1Sc1ccccc1 [Compound 115, (S)—N-(2-(2-cyano-4,4-difluoropyrrolidin-1-yl)-2-oxoethyl)-3-(phenylthio)isonicotinamide]
> 10 µM | > 50% | < 1 µM | < 1 µM | > 10 µM | > 10 µM | N#C[C@@H]1CC(F)(F)CN1C(=O)CNC(=O)c1ccncc1-c1ccc2c(c1)CCN2 [Compound 104, (S)—N-(2-(2-cyano-4,4-difluoropyrrolidin-1-yl)-2-oxoethyl)-3-(indolin-5-yl)isonicotinamide]
> 10 µM | > 50% | < 1 µM | < 1 µM | > 10 µM | > 10 µM | Cc1ccccc1-c1cnccc1C(=O)NCC(=O)N1CC(F)(F)C[C@H]1C#N [Compound 64, (S)—N-(2-(2-cyano-4,4-difluoropyrrolidin-1-yl)-2-oxoethyl)-3-(o-tolyl)isonicotinamide]
1 to 10 µM | > 50% | < 1 µM | < 1 µM | 1 to 10 µM | > 10 µM | N#C[C@@H]1CC(F)(F)CN1C(=O)CNC(=O)c1ccncc1-c1ccc(N)nc1 [Compound 107, (S)-6′-amino-N-(2-(2-cyano-4,4-difluoropyrrolidin-1-yl)-2-oxoethyl)-[3,3′-bipyridine]-4-carboxamide formate]
> 10 µM | > 50% | < 1 µM | < 1 µM | 1 to 10 µM | > 10 µM | N#C[C@@H]1CC(F)(F)CN1C(=O)CNC(=O)c1ccncc1N1CCC(N)CC1 [Compound 120, (S)-3-(4-aminopiperidin-1-yl)-N-(2-(2-cyano-4,4-difluoropyrrolidin-1-yl)-2-oxoethyl)isonicotinamide 2,2,2-trifluoroacetate]
> 10 µM | > 50% | < 1 µM | < 1 µM | > 10 µM | > 10 µM | Cn1ccc2c(-c3cnccc3C(=O)NCC(=O)N3CC(F)(F)C[C@H]3C#N)cccc21 [Compound 66, (S)—N-(2-(2-cyano-4,4-difluoropyrrolidin-1-yl)-2-oxoethyl)-3-(1-methyl-1H-indol-4-yl)isonicotinamide]
> 10 µM | > 50% | < 1 µM | < 1 µM | > 10 µM | > 10 µM | CC(C)(C)c1cccc(-c2cnccc2C(=O)NCC(=O)N2CC(F)(F)C[C@H]2C#N)c1 [Compound 112, (S)-3-(3-(tert-butyl)phenyl)-N-(2-(2-cyano-4,4-difluoropyrrolidin-1-yl)-2-oxoethyl)isonicotinamide]
1 to 10 µM | > 50% | < 1 µM | < 1 µM | > 10 µM | > 10 µM | N#C[C@@H]1CC(F)(F)CN1C(=O)CNC(=O)c1ccncc1C1=CCCCC1 [Compound 43, N-(2-((S)-2-cyano-4,4-difluoropyrrolidin-1-yl)-2-oxoethyl)-3-(cyclohex-1-en-1-yl)isonicotinamide]
